According to ChEMBL document CHEMBL4622979, “Non-rigid Diarylmethyl Analogs of Baloxavir as Cap-Dependent Endonuclease Inhibitors of Influenza Viruses” (J Med Chem, 2020):
pEC50: −log10 of the molar value. Activity calls are given as the source filed them. No cut-off for these calls is given here.

How the values were obtained:
[1] = Stability in human plasma assessed as parent compound remaining at 1 uM measured after 4 hrs by LC-MS/MS analysis; type: ADME, cell-free; details: read-out: Stability
Influenza A virus H3N2 = assay: Antiviral activity against Influenza A virus (A/Fukui/20/2004 (H3N2)) infected in MDCK cells assessed as protection against virus-induced cell death measured 72 to 96 hrs post-infection by CellTiter-Glo assay; type: functional, organism-based
[2] = Stability in rat liver S9 fraction assessed as parent compound remaining at 1 uM measured after 4 hrs by LC-MS/MS analysis; type: ADME, subcellular; details: read-out: Stability
[3] = Oral bioavailability in CD1 mouse at 10 mg/kg administered as single dose by LC-MS/MS analysis; type: ADME, organism-based; details: in vivo
[4] = Selectivity index, ratio of CC50 for MDCK cells to EC50 for Influenza A/California/04/2009 (H1N1)pdm09 virus infected in MDCK cells; type: toxicity, cell-based; details: dog, read-out: Ratio CC50/EC50
[5] = Cmax in CD1 mouse plasma at 10 mg/kg, po administered as single dose by LC-MS/MS analysis; type: ADME, organism-based; parameters: dose 10 mg/kg, route oral
Influenza A virus [6] = assay: Antiviral activity against Influenza A virus (A/Denmark/524/2009(H1N1)) pdm09 infected in MDCK cells assessed as protection against virus-induced cell death measured 72 to 96 hrs post-infection by CellTiter-Glo assay; type: functional, organism-based
Influenza A virus [7] = assay: Antiviral activity against Influenza A/California/04/2009 (H1N1)pdm09 infected in MDCK cells assessed as protection against virus-induced cell death by CellTiter-Glo assay; type: functional, organism-based; details: A/California/04/2009(H1N1) pdm09, MDCK
[8] = Stability in human liver S9 fraction assessed as parent compound remaining at 1 uM measured after 4 hrs by LC-MS/MS analysis; type: ADME, subcellular; details: read-out: Stability
[9] = Stability in rat plasma assessed as parent compound remaining at 1 uM measured after 4 hrs by LC-MS/MS analysis; type: ADME, cell-free; details: read-out: Stability
[10] = Cytotoxicity against MDCK cells assessed as reduction in cell viability by CellTiter-Glo assay; type: cell-based, Canis lupus familiaris; details: dog
[11] = AUClast in CD1 mouse plasma at 2 mg/kg, iv administered as single dose by LC-MS/MS analysis; type: ADME, organism-based; parameters: dose 2 mg/kg, route intravenous, time 0 - last
[12] = Stability in mouse liver S9 fraction assessed as parent compound remaining at 1 uM measured after 4 hrs by LC-MS/MS analysis; type: ADME, subcellular; details: read-out: Stability
[13] = AUClast in CD1 mouse plasma at 10 mg/kg, po administered as single dose by LC-MS/MS analysis; type: ADME, organism-based; parameters: dose 10 mg/kg, route oral, time 0 - last
Influenza B virus [14] = assay: Antiviral activity against Yamagata lineage of Influenza B virus (B/Florida/4/2006) infected in MDCK cells assessed as protection against virus-induced cell death measured 72 to 96 hrs post-infection by CellTiter-Glo assay; type: functional, organism-based
Influenza B virus [15] = assay: Antiviral activity against Victoria lineage of Influenza B virus (B/Brisbane/60/2008) infected in MDCK cells assessed as protection against virus-induced cell death measured 72 to 96 hrs post-infection by CellTiter-Glo assay; type: functional, organism-based
HEK-293T [16] = assay: Inhibition of CEN polymerase activity in Influenza A/California/04/2009 (H1N1)pdm09 NP/PA/PB1/PB2 complex transfected in HEK293T cells co-expressing beta-galactosidase at 100 nM preincubated for 3 hrs followed by viral gene transfection and measured after 24 hrs by ONPG substrate based luciferase reporter gene mini-replicon assay relative to control; type: cell-based; details: Influenza A virus (A/California/04/2009(H1N1))
[17] = Stability in mouse plasma assessed as parent compound remaining at 1 uM measured after 4 hrs by LC-MS/MS analysis; type: ADME, cell-free; details: read-out: Stability
HEK-293T [18] = assay: Inhibition of CEN polymerase activity in Influenza A/California/04/2009 (H1N1)pdm09 NP/PA/PB1/PB2 complex transfected in HEK293T cells co-expressing beta-galactosidase at 25 nM preincubated for 3 hrs followed by viral gene transfection and measured after 24 hrs by ONPG substrate based luciferase reporter gene mini-replicon assay relative to control; type: cell-based; details: Influenza A virus (A/California/04/2009(H1N1))
[19] = AUClast in CD1 mouse lung at 10 mg/kg, po administered as single dose by LC-MS/MS analysis; type: ADME, organism-based; details: in vivo
[20] = Cmax in CD1 mouse lung at 10 mg/kg, po administered as single dose by LC-MS/MS analysis; type: ADME, organism-based; parameters: dose 10 mg/kg, route oral
[21] = Ratio of AUClast in CD1 mouse lung to plasma at 10 mg/kg, po administered as single dose by LC-MS/MS analysis; type: ADME, organism-based; details: lung and plasma, read-out: Ratio AUC
[22] = Ratio of Cmax in CD1 mouse lung to plasma at 10 mg/kg, po administered as single dose by LC-MS/MS analysis; type: ADME, organism-based; details: lung and plasma
[23] = Cmax in CD1 mouse plasma assessed as (12aR)-12-[Bis(4-fluorophenyl)methyl]-7-hydroxy-3,4,12,12a-tetrahydro-1H-[1,4]oxazino[3,4-c]pyrido[2,1-f][1,2,4]triazine-6,8-dione level at 15 mg/kg, po administered as single dose by LC-MS/MS analysis; type: ADME, organism-based; parameters: dose 15 mg/kg, route oral; details: in vivo
[24] = Cmax in CD1 mouse lung assessed as (12aR)-12-[Bis(4-fluorophenyl)methyl]-7-hydroxy-3,4,12,12a-tetrahydro-1H-[1,4]oxazino[3,4-c]pyrido[2,1-f][1,2,4]triazine-6,8-dione level at 15 mg/kg, po administered as single dose by LC-MS/MS analysis; type: ADME, organism-based; parameters: dose 15 mg/kg, route oral; details: in vivo
[25] = Stability in simulated intestinal fluid assessed as parent compound remaining at 1 uM measured after 4 hrs at pH 1.2 by LC-MS/MS analysis; type: physicochemical; details: read-out: Stability
[26] = Ratio of Cmax in CD1 mouse lung to plasma assessed as (12aR)-12-[Bis(4-fluorophenyl)methyl]-7-hydroxy-3,4,12,12a-tetrahydro-1H-[1,4]oxazino[3,4-c]pyrido[2,1-f][1,2,4]triazine-6,8-dione level at 15 mg/kg, po administered as single dose by LC-MS/MS analysis; type: ADME, organism-based; details: other tissue
[27] = AUClast in CD1 mouse plasma assessed as (12aR)-12-[Bis(4-fluorophenyl)methyl]-7-hydroxy-3,4,12,12a-tetrahydro-1H-[1,4]oxazino[3,4-c]pyrido[2,1-f][1,2,4]triazine-6,8-dione level at 15 mg/kg, po administered as single dose by LC-MS/MS analysis; type: ADME, organism-based; parameters: dose 15 mg/kg, time 0 - last, route oral; details: in vivo
[28] = Stability in simulated gastric fluid assessed as parent compound remaining at 1 uM measured after 4 hrs at pH 1.2 by LC-MS/MS analysis; type: physicochemical; details: read-out: Stability
[29] = Ratio of AUClast in CD1 mouse lung to plasma assessed as (12aR)-12-[Bis(4-fluorophenyl)methyl]-7-hydroxy-3,4,12,12a-tetrahydro-1H-[1,4]oxazino[3,4-c]pyrido[2,1-f][1,2,4]triazine-6,8-dione level at 15 mg/kg, po administered as single dose by LC-MS/MS analysis; type: ADME, organism-based; details: other tissue
[30] = AUClast in CD1 mouse lung assessed as (12aR)-12-[Bis(4-fluorophenyl)methyl]-7-hydroxy-3,4,12,12a-tetrahydro-1H-[1,4]oxazino[3,4-c]pyrido[2,1-f][1,2,4]triazine-6,8-dione level at 15 mg/kg, po administered as single dose by LC-MS/MS analysis; type: ADME, organism-based; details: in vivo
[31] = Oral bioavailability in CD1 mouse assessed as (12aR)-12-[Bis(4-fluorophenyl)methyl]-7-hydroxy-3,4,12,12a-tetrahydro-1H-[1,4]oxazino[3,4-c]pyrido[2,1-f][1,2,4]triazine-6,8-dione level at 15 mg/kg administered as single dose by LC-MS/MS analysis; type: ADME, organism-based; details: in vivo

Structure (SMILES)	remaining at 4 h, 1 µM [1] [%]	remaining at 4 h, 1 µM [2] [%]	bioavailability [3] [%]	selectivity ratio [4]	Cmax [5] [ng/mL]	pEC50 (Influenza A virus [7])	remaining at 4 h, 1 µM [8] [%]	remaining at 4 h, 1 µM [9] [%]	CC50 [10] [nM]	AUC(0-t) [11] [ng·h/mL]	remaining at 4 h, 1 µM [12] [%]	AUC(0-t) [13] [ng·h/mL]	inhibition (HEK-293T [16]) [%]	remaining at 4 h, 1 µM [17] [%]	inhibition (HEK-293T [18]) [%]	also measured
O=C1c2c(O)c(=O)ccn2N([C@@H]2c3ccccc3SCc3c2ccc(F)c3F)[C@@H]2COCCN12 [BALOXAVIR]	89.9	85	3	> 1000	11.9	9.05	93.5	73.9	5600	354	87.7	79.9	99.7	45.4	99.6	Activity (Influenza A virus H3N2): Active; Activity (Influenza A virus [6]): Active; Activity (Influenza B virus [14]): Active; Activity (Influenza B virus [15]): Active
CC(C)[N+](C)(CCOC(=O)C1c2ccccc2Oc2ccccc21)C(C)C [PROPANTHELINE]	1.28	–	–	–	–	–	–	74.3	–	–	–	–	–	1.21	–	–
O=C1c2c(O)c(=O)ccn2N([C@H](c2ccccc2)c2ccc(F)c(F)c2)[C@@H]2COCCN12	85.7	95.4	2.7	> 1000	115	7.81	104	94.4	15900	2210	95.2	303	83.9	114	42.2	AUClast [19]: 384 ng·h/g; Cmax [20]: 264 ng/g; Kp [21]: 1.3; Kp [22]: 2.3
COC(=O)OCOc1c2n(ccc1=O)N(C(c1ccc(F)cc1)c1ccc(F)cc1)[C@@H]1COCCN1C2=O	–	–	–	–	–	–	–	–	–	–	–	–	–	–	–	Cmax [23]: 647 ng/mL; Cmax [24]: 708 ng/g; remaining at 4 h, 1 µM [25]: 99.7%; Ratio [26]: 1.1; AUClast [27]: 3186 ng·h/mL; remaining at 4 h, 1 µM [28]: 98.4%; Ratio AUC [29]: 1; AUClast [30]: 3302 ng·h/g; F [31]: 39.6%
O=C(O)CCCc1ccc(N(CCCl)CCCl)cc1 [CHLORAMBUCIL]	–	–	–	–	–	–	–	–	–	–	–	–	–	–	–	remaining at 4 h, 1 µM [25]: 0.04%; remaining at 4 h, 1 µM [28]: 97.2%
CSc1ccccc1[C@@H](c1ccc(F)c(F)c1)N1[C@@H]2COCCN2C(=O)c2c(O)c(=O)ccn21	–	–	–	67	–	6.84	–	–	9800	–	–	–	13.2	–	3.1	–
CSc1ccccc1[C@H](c1ccc(F)c(F)c1)N1[C@@H]2COCCN2C(=O)c2c(O)c(=O)ccn21	–	–	–	511	–	7.49	–	–	16400	–	–	–	74.1	–	22.9	–
O=C1c2c(O)c(=O)ccn2N(C(c2ccc(F)cc2)c2ccc(F)cc2)[C@@H]2COCCN12	–	98.3	22.6	993	308	7.87	97	–	13300	1070	103	1820	80	–	45.4	AUClast [19]: 4490 ng·h/g; Cmax [20]: 935 ng/g; Kp [21]: 2.5; remaining at 4 h, 1 µM [25]: 96%; remaining at 4 h, 1 µM [28]: 87.3%; Kp [22]: 3
O=C1c2c(O)c(=O)ccn2N([C@@H](c2ccccc2)c2ccc(F)c(F)c2)[C@@H]2COCCN12	90.3	99.6	17.6	538	332	7.65	113	85.8	12100	927	92.4	817	63.2	105	28.4	pEC50 (Influenza A virus H3N2; A/Fukui/20/2004, MDCK): 7.90 to 8.44; AUClast [19]: 735 ng·h/g; Cmax [20]: 501 ng/g; pEC50 (Influenza A virus [6]; A/Denmark/524/2009(H1N1) pdm09, MDCK): 7.90 to 8.44; Kp [21]: 0.9; pEC50 (Influenza B virus [14]; B/Florida/4/2006, MDCK): 4.55 to 5.29; Kp [22]: 1.5; pEC50 (Influenza B virus [15]; B/Brisbane/60/2008, MDCK): 4.55 to 5.29
O=C1c2c(O)c(=O)ccn2N(C(c2ccc(F)c(F)c2)c2ccc(F)c(F)c2)[C@@H]2COCCN12	–	–	–	611	–	7.65	–	–	13800	–	–	–	80.9	–	50.2	–
O=c1ccc2ccc(O)cc2o1 [UMBELLIFERONE]	–	2.74	–	–	–	–	0.39	–	–	–	0.83	–	–	–	–	–
